Assays:
NOX1 = NOX1 (Homo sapiens, UniProt Q9Y5S8); assay: luminol/HRP chemiluminescence, intact transfected HEK293 cells; type: cell-based
NOX4 = target: T1, NOX4 (Homo sapiens, UniProt Q9NPH5); assay: Amplex Red/HRP H2O2 fluorescence, intact transfected HEK293 cells; type: cell-based
T1 sequence (Q9NPH5 1-578): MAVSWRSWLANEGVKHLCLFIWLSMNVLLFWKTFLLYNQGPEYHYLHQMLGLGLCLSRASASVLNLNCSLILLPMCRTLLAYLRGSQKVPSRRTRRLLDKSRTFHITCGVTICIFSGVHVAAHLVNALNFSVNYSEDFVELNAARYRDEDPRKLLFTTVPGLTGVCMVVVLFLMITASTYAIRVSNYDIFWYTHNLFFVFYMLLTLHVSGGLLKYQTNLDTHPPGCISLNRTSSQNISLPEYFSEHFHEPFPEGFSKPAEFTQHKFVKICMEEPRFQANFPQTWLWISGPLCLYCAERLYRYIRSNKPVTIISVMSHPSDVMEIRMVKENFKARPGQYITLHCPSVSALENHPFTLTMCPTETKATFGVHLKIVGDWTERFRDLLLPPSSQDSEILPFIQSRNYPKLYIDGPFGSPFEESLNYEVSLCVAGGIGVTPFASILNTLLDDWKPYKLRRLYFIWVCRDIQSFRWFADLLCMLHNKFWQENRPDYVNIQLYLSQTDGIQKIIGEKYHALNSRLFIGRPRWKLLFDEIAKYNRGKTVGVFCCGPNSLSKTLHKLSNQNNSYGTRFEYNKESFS
T1 sequence (P13498 2-195 partner): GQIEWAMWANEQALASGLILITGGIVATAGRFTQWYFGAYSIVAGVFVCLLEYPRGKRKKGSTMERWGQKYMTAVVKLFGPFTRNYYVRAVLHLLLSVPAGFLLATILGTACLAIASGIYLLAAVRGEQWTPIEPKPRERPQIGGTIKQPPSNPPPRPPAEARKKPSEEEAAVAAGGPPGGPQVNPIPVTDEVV

NOX1, sequence (Q9Y5S8 whole entry, one chain of several): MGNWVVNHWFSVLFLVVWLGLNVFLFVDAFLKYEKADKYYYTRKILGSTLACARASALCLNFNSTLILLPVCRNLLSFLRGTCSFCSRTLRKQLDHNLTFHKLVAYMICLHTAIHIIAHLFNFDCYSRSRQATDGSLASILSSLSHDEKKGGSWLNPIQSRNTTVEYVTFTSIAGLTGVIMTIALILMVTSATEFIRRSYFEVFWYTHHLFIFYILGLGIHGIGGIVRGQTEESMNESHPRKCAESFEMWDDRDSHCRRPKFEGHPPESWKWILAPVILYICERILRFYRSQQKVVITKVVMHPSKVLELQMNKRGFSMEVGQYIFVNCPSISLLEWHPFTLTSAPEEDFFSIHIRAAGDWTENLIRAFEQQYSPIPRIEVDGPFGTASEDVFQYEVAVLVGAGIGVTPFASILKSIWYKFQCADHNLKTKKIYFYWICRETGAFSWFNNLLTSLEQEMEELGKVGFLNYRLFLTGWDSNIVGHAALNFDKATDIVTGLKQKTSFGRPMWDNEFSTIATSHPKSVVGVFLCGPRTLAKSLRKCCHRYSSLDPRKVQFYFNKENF
NOX1, sequence (Q8NFA2 whole entry partner, one chain of several): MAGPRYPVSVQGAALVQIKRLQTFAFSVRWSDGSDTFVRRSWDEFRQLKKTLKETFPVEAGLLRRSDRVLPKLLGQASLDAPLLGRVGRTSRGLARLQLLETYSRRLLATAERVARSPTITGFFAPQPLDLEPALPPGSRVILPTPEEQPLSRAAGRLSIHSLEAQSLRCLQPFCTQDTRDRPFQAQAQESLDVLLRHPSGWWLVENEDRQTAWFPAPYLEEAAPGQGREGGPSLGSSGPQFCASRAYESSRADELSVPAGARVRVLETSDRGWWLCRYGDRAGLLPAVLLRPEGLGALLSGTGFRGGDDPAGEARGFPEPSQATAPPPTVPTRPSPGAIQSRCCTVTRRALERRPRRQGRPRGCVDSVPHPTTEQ
NOX1, sequence (Q86UR1 whole entry partner, one chain of several): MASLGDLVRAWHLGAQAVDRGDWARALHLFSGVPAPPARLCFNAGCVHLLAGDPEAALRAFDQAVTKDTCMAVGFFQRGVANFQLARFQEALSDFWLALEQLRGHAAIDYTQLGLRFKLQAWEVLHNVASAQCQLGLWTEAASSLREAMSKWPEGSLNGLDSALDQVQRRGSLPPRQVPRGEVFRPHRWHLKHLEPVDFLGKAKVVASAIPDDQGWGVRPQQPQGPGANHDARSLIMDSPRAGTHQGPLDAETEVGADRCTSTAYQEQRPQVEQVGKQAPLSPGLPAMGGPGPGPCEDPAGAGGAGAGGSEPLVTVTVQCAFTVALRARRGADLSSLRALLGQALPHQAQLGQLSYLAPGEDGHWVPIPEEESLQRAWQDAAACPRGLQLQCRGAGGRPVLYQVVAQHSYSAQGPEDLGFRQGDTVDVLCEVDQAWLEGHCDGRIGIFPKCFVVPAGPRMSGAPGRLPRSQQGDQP

**Q.** Which results are given for c1ccc2c(c1)Nc1nc3ccccc3nc1N2 [ML090, 5,12-Dihydroquinoxalino(2,3-B)quinoxaline]?
**A.** IC50 (NOX1): 25.1 nM; IC50 (NOX4): 20.4 nM
